# Experimental data: the Kinase Knowledgebase extract (Sharma et al. 2016)
# Several values for one entry are separate records, joined by “and”; a condition that tells them apart may be missing. Identical values can stand only once.
# Molecular target: PIK3CA (human) (UniProt P42336)
# Test: Inhibition of PIK3CA Kinase Activity
# Sequence of PIK3CA (human) (P42336 whole entry, looked up): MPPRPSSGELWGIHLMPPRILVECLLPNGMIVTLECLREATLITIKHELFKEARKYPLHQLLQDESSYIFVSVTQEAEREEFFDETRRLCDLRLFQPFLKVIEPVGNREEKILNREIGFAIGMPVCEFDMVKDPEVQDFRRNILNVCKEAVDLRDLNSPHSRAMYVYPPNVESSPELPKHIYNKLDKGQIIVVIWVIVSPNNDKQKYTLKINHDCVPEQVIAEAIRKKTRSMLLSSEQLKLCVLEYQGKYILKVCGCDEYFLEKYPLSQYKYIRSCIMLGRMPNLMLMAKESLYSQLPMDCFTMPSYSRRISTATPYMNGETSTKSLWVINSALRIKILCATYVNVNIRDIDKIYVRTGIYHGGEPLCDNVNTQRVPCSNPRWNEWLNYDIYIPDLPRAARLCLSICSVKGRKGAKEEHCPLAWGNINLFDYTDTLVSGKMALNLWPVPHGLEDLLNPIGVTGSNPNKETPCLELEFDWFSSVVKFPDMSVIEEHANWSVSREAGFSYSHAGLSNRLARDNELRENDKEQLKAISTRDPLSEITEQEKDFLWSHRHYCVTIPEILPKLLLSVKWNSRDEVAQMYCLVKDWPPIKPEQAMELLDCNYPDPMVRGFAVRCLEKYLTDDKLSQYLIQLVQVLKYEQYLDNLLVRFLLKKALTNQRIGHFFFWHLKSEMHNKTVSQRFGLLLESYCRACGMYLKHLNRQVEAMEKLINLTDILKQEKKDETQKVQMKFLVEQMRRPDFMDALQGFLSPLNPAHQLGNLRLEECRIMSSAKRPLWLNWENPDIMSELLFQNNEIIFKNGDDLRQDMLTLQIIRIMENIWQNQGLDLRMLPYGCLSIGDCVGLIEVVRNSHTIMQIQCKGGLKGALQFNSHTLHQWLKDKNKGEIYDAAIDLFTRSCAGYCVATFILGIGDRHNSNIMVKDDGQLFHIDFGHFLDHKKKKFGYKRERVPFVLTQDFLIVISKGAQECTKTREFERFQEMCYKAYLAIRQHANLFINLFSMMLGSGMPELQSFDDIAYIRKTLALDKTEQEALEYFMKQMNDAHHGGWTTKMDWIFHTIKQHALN
row,SMILES,IC50
1,Cc1nc(-c2cn3c(n2)-c2ccc(-c4cnn(C(C)C)c4CN4CCN(C(C)(C)C)CC4)cc2OCC3)n(C(C)C)n1,111 nM
2,Cc1nc(-c2cn3c(n2)-c2ccc(-c4ccnn4C4CC(C)N(C)C(C)C4)cc2OCC3)n(C(C)C)n1 (configuration not stated),100 nM
3,Cc1nc(-c2cn3c(n2)-c2ccc(-c4cn(C)nc4C4CCCN(C(C)C)C4)cc2OCC3)n(C(C)C)n1 (configuration not stated),28.4 nM
4,Cc1nc(-c2cn3c(n2)-c2cc(-c4cnn(C)c4C4CC(N(C)C)CCO4)c(F)cc2OCC3)n(C(C)C)n1 (configuration not stated),9.57 nM
5,Cc1nc(-c2cn3c(n2)-c2cc(-c4ccnn4[C@@H]4CCCN(C(C)C)C4)c(F)cc2OCC3)n(C(C)C)n1,11.4 nM
6,Cc1nc(-c2cn3c(n2)-c2ccc(OC4(C)CNC4)cc2OCC3)n(C(C)C)n1,6.2 nM
7,Cc1nc(-c2cn3c(n2)-c2ccc(N4CCCC4CN(C)C)cc2OCC3)n(C(C)C)n1 (configuration not stated),14 nM and 6.62 nM
8,COc1cc2c(cc1[C@@H](C)N1CCN(C(C)(C)C)CC1)-c1nc(-c3nc(C)nn3C(C)C)cn1CCO2,97.9 nM and 47.8 nM
9,COc1cc2c(cc1[C@H](C)N1CCN(C(C)(C)C)CC1)-c1nc(-c3nc(C)nn3C(C)C)cn1CCO2,62 nM and 90.9 nM
10,CCN1CCC(C2CCCN2c2ccc3c(c2)OCCn2cc(-c4nc(C)nn4C(C)C)nc2-3)CC1 (configuration not stated),18.9 nM
11,CC(Oc1ccc2c(c1)OCCn1cc(-c3ncnn3C(C)C)nc1-2)C1CCN(C(C)C)CC1 (configuration not stated),6.36 nM
12,CCN(CC)C1CCOC(c2c(-c3ccc4c(c3)OCCn3cc(-c5nc(C)nn5C(C)C)nc3-4)cnn2C)C1 (configuration not stated),64.5 nM and 65.8 nM and 54.8 nM
13,CC(C)n1ncnc1-c1cn2c(n1)-c1cc([S+]([O-])C3CCN(C(C)(C)C)CC3)ccc1OCC2 (configuration not stated),149 nM
14,Cc1nc(-c2cn3c(n2)-c2cc([C@H](C)N4CCN(C(C)(C)CO)CC4)c(F)cc2OCC3)n(C(C)C)n1,422 nM
15,Cc1nc(-c2cn3c(n2)-c2cc(C(C)N4CCN(C5COC5)CC4)c(C)cc2OCC3)n(C(C)C)n1 (configuration not stated),126 nM
16,Cc1nc(-c2cn3c(n2)-c2cc(C(O)C4CCN(C)CC4)ccc2OCC3)n(C(C)C)n1 (configuration not stated),193 nM
17,Cc1nc(-c2cn3c(n2)-c2cc([C@H](C)N4CCN(C(C)(C)C)CC4)c(C)cc2OCC3)n(C(C)C)n1,24.1 nM

row,SMILES,IC50
1,Cc1nc(-c2cn3c(n2)-c2cc([C@H](C)N4CCN(C(C)C)CC4)c(F)cc2OCC3)n(C(C)C)n1,59.9 nM
2,Cc1nc(-c2cn3c(n2)-c2ccc(-c4cnn(C(C)C)c4CN4CCN(C)CC4)cc2OCC3)n(C(C)C)n1,112 nM
3,Cc1nc(-c2cn3c(n2)-c2cc([C@H](C)N4CCN(CC(C)(C)O)CC4)c(F)cc2OCC3)n(C(C)C)n1,724 nM
4,Cc1nc(-c2cn3c(n2)-c2ccc(-c4cnn(C)c4C4CCCN(C(C)C)C4)cc2OCC3)n(C(C)C)n1 (configuration not stated),57.7 nM
5,Cc1nc(-c2cn3c(n2)-c2ccc(OC4(CN5CCN(C)CC5)CC4)cc2OCC3)n(C(C)C)n1,86.4 nM
6,Cc1nc(-c2cn3c(n2)-c2ccc(-c4ccnn4C4CCCN(C5(C)COC5)C4)cc2OCC3)n(C(C)C)n1 (configuration not stated),44.3 nM
7,Cc1nc(-c2cn3c(n2)-c2ccc(-c4ncnn4C4CCN(C(C)(C)C)CC4)cc2OCC3)n(C(C)C)n1,837 nM
8,Cc1nc(-c2cn3c(n2)-c2cc([C@@H](C)N4CCN(C(C)C)CC4)c(C)cc2OCC3)n(C(C)C)n1,90 nM
9,Cc1nc(-c2cn3c(n2)-c2ccc(N4CCC[C@H]4CN4CCCC4)cc2OCC3)n(C(C)C)n1,6.32 nM
10,Cc1nc(-c2cn3c(n2)-c2cc([C@@H](C)N4CCN(C(C)(C)CO)CC4)ncc2OCC3)n(C(C)C)n1,219 nM
11,CC(C)n1ncnc1-c1cn2c(n1)-c1ccc(-c3ccccc3S(N)(=O)=O)cc1OCC2,242 nM
12,Cc1nc(-c2cn3c(n2)-c2ccc(-c4ccnn4[C@@H]4CCCN(C(C)(C)CO)C4)cc2OCC3)n(C(C)C)n1,10.8 nM
13,Cc1nc(-c2cn3c(n2)-c2cc(-c4ccnn4[C@H]4CCCN(C5COC5)C4)c(F)cc2OCC3)n(C(C)C)n1,207 nM
14,Cc1nc(-c2cn3c(n2)-c2ccc(OC4(CC5CC5)CNC4)cc2OCC3)n(C(C)C)n1,69.3 nM
15,Cc1nc(-c2cn3c(n2)-c2cc([C@@H](C)N4CCN(C(C)(C)CO)CC4)c(F)cc2OCC3)n(C(C)C)n1,263 nM
16,CC(C)n1nc(N)nc1-c1cn2c(n1)-c1ccc(-c3ccnn3C3CCN(C)CC3)cc1OCC2,38.5 nM

# More lines, now with the values ahead:
row,IC50,SMILES
1,12.9 nM and 5.23 nM and 16.8 nM,Cc1nc(-c2cn3c(n2)-c2ccc(N4CCCC45CCCN(C)C5)cc2OCC3)n(C(C)C)n1 (configuration not stated)
2,145 nM,Cc1nc(-c2cn3c(n2)-c2ccc(-c4cnc(C)n4C4CCCN(C(C)C)C4)cc2OCC3)n(C(C)C)n1 (configuration not stated)
3,43 nM,Cc1nc(-c2cn3c(n2)-c2ccc(-c4ccnn4[C@H]4CCCN(C(C)(C)CO)C4)cc2OCC3)n(C(C)C)n1
4,86.8 nM,CCN1CCN(C(C)c2cc3c(cc2F)OCCn2cc(-c4nc(C)nn4C(C)C)nc2-3)CC1 (configuration not stated)
5,9.19 nM,Cc1nc(-c2cn3c(n2)-c2cnc(-c4cnn(C)c4C4CCCN(C(C)C)C4)cc2OCC3)n(C(C)C)n1 (configuration not stated)
6,70.7 nM,Cc1nc(-c2cn3c(n2)-c2ccc(OC4(CC5CC5)CN(C(C)C)C4)cc2OCC3)n(C(C)C)n1
7,38.5 nM,CC(C)n1nc(CO)nc1-c1cn2c(n1)-c1ccc(-c3ccnn3C3CCN(C)CC3)cc1OCC2
8,8.81 nM,Cc1nc(-c2cn3c(n2)-c2cc([C@H](C)N4CCN(C(C)C)CC4)c(C)cc2OCC3)n(C(C)C)n1
9,12.9 nM,CC(C)n1ncnc1-c1cn2c(n1)-c1cnc(N3CCCC3CN3CCCC3)cc1OCC2 (configuration not stated)
10,14.6 nM,Cc1nc(-c2cn3c(n2)-c2ccc(N4CCCC4C4CCN(S(C)(=O)=O)CC4)cc2OCC3)n(C(C)C)n1 (configuration not stated)
11,2.34 nM,Cc1nc(-c2cn3c(n2)-c2ccc(-c4cnn(C)c4N4CCN(C)[C@H](C(C)C)C4)cc2OCC3)n(C(C)C)n1
12,20.7 nM,Cc1nc(-c2cn3c(n2)-c2ccc(-c4cnn(C)c4[C@H]4CCCN(C(C)C)C4)cc2OCC3)n(C(C)C)n1
13,9.19 nM,Cc1nc(-c2cn3c(n2)-c2ccc(OC4(C)CCN(C(C)C)C4)cc2OCC3)n(C(C)C)n1 (configuration not stated)
14,217 nM,Cc1nc(-c2cn3c(n2)-c2cc([C@H](C)N4CCN(C(C)(C)C)CC4)ncc2OCC3)n(C(C)C)n1
15,15.1 nM,Cc1nc(-c2cn3c(n2)-c2ccc(N4CCC4C4CCN(C(C)C)CC4)cc2OCC3)n(C(C)C)n1 (configuration not stated)
16,186 nM,Cc1nc(-c2cn3c(n2)-c2ccc(-c4ccnn4C4CCCN(Cc5ccccc5)C4)cc2OCC3)n(C(C)C)n1 (configuration not stated)
17,173 nM,Cc1cc2c(cc1-c1ccnn1C1CCN(C)CC1)OCCn1cc(-c3ncnn3C(C)C)nc1-2
18,80.9 nM,CC(C)n1nc(N)nc1-c1cn2c(n1)-c1ccc(-c3ccnn3C3CCN(C(C)(C)C)CC3)cc1OCC2
19,169 nM,Cc1nc(-c2cn3c(n2)-c2cc([C@@H](C)N4CCN(C(C)C)CC4)c(F)cc2OCC3)n(C(C)C)n1
20,14.4 nM,Cc1nc(-c2cn3c(n2)-c2ccc(-c4ccnn4C4CCCN(C(C)(C)CO)C4)cc2OCC3)n(C(C)C)n1 (configuration not stated)
21,32.8 nM,Cc1nc(-c2cn3c(n2)-c2ccc(OC4CC(C)CN(C(C)C)C4)cc2OCC3)n(C(C)C)n1 (configuration not stated)
22,76.2 nM,Cc1nc(-c2cn3c(n2)-c2cc(C(C)N4CCN(CC(C)(C)O)CC4)c(C)cc2OCC3)n(C(C)C)n1 (configuration not stated)
23,72.8 nM,Cc1nc(-c2cn3c(n2)-c2ccc(N4CCCC45CCCN(C(C)C)C5)cc2OCC3)n(C(C)C)n1 (configuration not stated)
24,30.9 nM and 92.2 nM and 32 nM,Cc1nc(-c2cn3c(n2)-c2ccc(-c4cnn(C)c4C4CCCN(C(C)(C)CO)C4)cc2OCC3)n(C(C)C)n1 (configuration not stated)
25,21.9 nM,Cc1nc(-c2cn3c(n2)-c2ccc(N4CCC[C@@H]4C4CCN(C(C)C)CC4)cc2OCC3)n(C(C)C)n1

row,IC50,SMILES
1,13.9 nM,CC(C)n1ncnc1-c1cn2c(n1)-c1cnc(N3CCCC3C3CCN(C)CC3)cc1OCC2 (configuration not stated)
2,22 nM,Cc1nc(-c2cn3c(n2)-c2ccc(N4CCC[C@@H]4CN4CCCC4)cc2OCC3)n(C(C)C)n1
3,44.8 nM,Cc1nc(-c2cn3c(n2)-c2ccc(-c4ccnn4C4CCN(C(C)(C)C)CC4)cc2OCC3)n(C(C)C)n1
4,47.4 nM and 19.3 nM,Cc1nc(-c2cn3c(n2)-c2cc(-c4ccnn4[C@@H]4CCCN(C(C)(C)CO)C4)c(F)cc2OCC3)n(C(C)C)n1
5,172 nM,Cc1nc(-c2cn3c(n2)-c2cc(C(=O)N4CCN(C(C)(C)CO)CC4)c(F)cc2OCC3)n(C(C)C)n1
6,250 nM,Cc1nc(-c2cn3c(n2)-c2cc(C(C)N4CCN(C(C)(C)C)CC4)c(F)cc2OCC3)n(C(C)C)n1 (configuration not stated)
7,58.8 nM,Cc1nc(-c2cn3c(n2)-c2ccc(-c4cnn(C)c4[C@@H]4CCCN(C(C)C)C4)cc2OCC3)n(C(C)C)n1
8,219 nM and 49.8 nM and 81.2 nM,Cc1nc(-c2cn3c(n2)-c2ccc(-c4cnn(C)c4C4CC(N(C)C(C)C)CCO4)cc2OCC3)n(C(C)C)n1 (configuration not stated)
9,1.85 nM and 1.9 nM,Cc1nc(-c2cn3c(n2)-c2cnc(N4CCCC4C4CCCCN4C)cc2OCC3)n(CC(F)(F)F)n1 (configuration not stated)
10,372 nM,Cc1nc(-c2cn3c(n2)-c2cc([C@@H](C)N4CCN(C(C)(C)C)CC4)c(F)cc2OCC3)n(C(C)C)n1
11,105 nM,Cc1nc(-c2cn3c(n2)-c2ccc(OC4(c5ccccc5)CN(C(C)C)C4)cc2OCC3)n(C(C)C)n1
12,180 nM,Cc1nc(-c2cn3c(n2)-c2cc([C@H](C)N4CCN(C(C)(C)CO)CC4)ncc2OCC3)n(C(C)C)n1
13,191 nM,Cc1nc(-c2cn3c(n2)-c2cc(C(=O)N4CCN(C(C)(C)C)CC4)c(F)cc2OCC3)n(C(C)C)n1
14,74.8 nM and 49.2 nM,Cc1nc(-c2cn3c(n2)-c2ccc(N4CCCC4C4CCN(CC(C)(C)O)CC4)cc2OCC3)n(C(C)C)n1 (configuration not stated)
15,53.6 nM,CC(C)n1ncnc1-c1cn2c(n1)-c1cc(CN3CCN(C(C)(C)C)CC3)ccc1OCC2
16,11.2 nM,Cc1nc(-c2cn3c(n2)-c2ccc(-c4cnn(C)c4C4CCCCN4CC(C)(C)O)cc2OCC3)n(C(C)C)n1 (configuration not stated)
17,20.3 nM,Cc1nc(-c2cn3c(n2)-c2ccc(N4CCC[C@H]4C4CCN(C(C)C)CC4)cc2OCC3)n(C(C)C)n1
18,20 nM and 105 nM,Cc1nc(-c2cn3c(n2)-c2cc(-c4cnn(C)c4C4CCCN(C(C)C)C4)c(F)cc2OCC3)n(C(C)C)n1 (configuration not stated)
19,278 nM,Cc1nc(-c2cn3c(n2)-c2ccc(OC4(CC(C)C)CN(C(C)C)C4)cc2OCC3)n(C(C)C)n1
20,247 nM,Cc1nc(-c2cn3c(n2)-c2cc([C@H](C)N4CCN(C(C)(C)C)CC4)c(F)cc2OCC3)n(C(C)C)n1
21,52.2 nM,Cc1nc(-c2cn3c(n2)-c2cc([C@@H](C)N4CCN(C(C)(C)C)CC4)c(C)cc2OCC3)n(C(C)C)n1
22,125 nM,Cc1nc(-c2cn3c(n2)-c2ccc(-n4ccnc4C4CCCN(C(C)C)C4)cc2OCC3)n(C(C)C)n1 (configuration not stated)
23,24.9 nM,CC(C)n1ncnc1-c1cn2c(n1)-c1cc(C(=O)N3CCN(C(C)(C)C)CC3)ccc1OCC2
24,33.4 nM,Cc1nc(-c2cn3c(n2)-c2ccc(-c4ccnn4C4CCN(C(C)C)CC4)cc2OCC3)n(C(C)C)n1
